Test results reported in the NIST ThermoML archive (doi:10.1021/je300584m).
“And” between values parts separate entries of the source, which are not always exact repeats. Equal values may be shown once.

Tests used:
[1] = Molar enthalpy of transition or fusion; settings: Crystal; DSC

OC1c2ccccc2-c2ccccc21 [9H-fluoren-9-ol]
Settings	vapor or sublimation pressure
337.16 K, Crystal, Calculated from knudsen effusion weight loss	0.000106 kPa
339.13 K, Crystal, Calculated from knudsen effusion weight loss	0.000132 kPa
341.1 K, Crystal, Calculated from knudsen effusion weight loss	0.000163 kPa
343.16 K, Crystal, Calculated from knudsen effusion weight loss	0.000196 kPa
345.09 K, Crystal, Calculated from knudsen effusion weight loss	0.000243 kPa
347.09 K, Crystal, Calculated from knudsen effusion weight loss	0.000307 kPa
349.15 K, Crystal, Calculated from knudsen effusion weight loss	0.000385 kPa
350.76 K, Crystal, Closed cell (Static) method	0.00051 kPa
351.11 K, Crystal, Calculated from knudsen effusion weight loss	0.00047 kPa
352.75 K, Crystal, Closed cell (Static) method	0.00062 kPa
353.11 K, Crystal, Calculated from knudsen effusion weight loss	0.000579 kPa
354.71 K, Crystal, Closed cell (Static) method	0.00075 kPa
355.1 K, Crystal, Calculated from knudsen effusion weight loss	0.00071 kPa
356.59 K, Crystal, Closed cell (Static) method	0.00092 kPa
357.09 K, Crystal, Calculated from knudsen effusion weight loss	0.000884 kPa
358.67 K, Crystal, Closed cell (Static) method	0.00113 kPa
359.09 K, Crystal, Calculated from knudsen effusion weight loss	0.001078 kPa
360.98 K, Crystal, Closed cell (Static) method	0.00139 kPa
362.63 K, Crystal, Closed cell (Static) method	0.00165 kPa
364.58 K, Crystal, Closed cell (Static) method	0.00198 kPa
366.55 K, Crystal, Closed cell (Static) method	0.00238 kPa
368.53 K, Crystal, Closed cell (Static) method	0.0029 kPa
370.51 K, Crystal, Closed cell (Static) method	0.00343 kPa
372.48 K, Crystal, Closed cell (Static) method	0.00418 kPa
372.51 K, Crystal, Closed cell (Static) method	0.00419 kPa
374.53 K, Crystal, Closed cell (Static) method	0.00504 kPa
376.49 K, Crystal, Closed cell (Static) method	0.00599 kPa
378.48 K, Crystal, Closed cell (Static) method	0.00711 kPa
380.44 K, Crystal, Closed cell (Static) method	0.00855 kPa
382.39 K, Crystal, Closed cell (Static) method	0.01001 kPa
384.38 K, Crystal, Closed cell (Static) method	0.01183 kPa
386.35 K, Crystal, Closed cell (Static) method	0.01393 kPa
388.32 K, Crystal, Closed cell (Static) method	0.01662 kPa
390.28 K, Crystal, Closed cell (Static) method	0.0195 kPa
392.27 K, Crystal, Closed cell (Static) method	0.02263 kPa
394.22 K, Crystal, Closed cell (Static) method	0.02684 kPa
396.22 K, Crystal, Closed cell (Static) method	0.03155 kPa
398.16 K, Crystal, Closed cell (Static) method	0.03678 kPa
400.1 K, Crystal, Closed cell (Static) method	0.04277 kPa
402.11 K, Crystal, Closed cell (Static) method	0.05007 kPa
404.04 K, Crystal, Closed cell (Static) method	0.05782 kPa
406.06 K, Crystal, Closed cell (Static) method	0.06738 kPa
407.96 K, Crystal, Closed cell (Static) method	0.07784 kPa
409.98 K, Liquid, Closed cell (Static) method	0.1186 kPa
410 K, Crystal, Closed cell (Static) method	0.09038 kPa
411.89 K, Crystal, Closed cell (Static) method	0.104 kPa
411.93 K, Liquid, Closed cell (Static) method	0.1331 kPa
413.86 K, Crystal, Closed cell (Static) method	0.1211 kPa
413.91 K, Liquid, Closed cell (Static) method	0.15 kPa
415.85 K, Crystal, Closed cell (Static) method	0.1377 kPa
415.88 K, Liquid, Closed cell (Static) method	0.1652 kPa
417.82 K, Crystal, Closed cell (Static) method	0.1592 kPa
417.86 K, Liquid, Closed cell (Static) method	0.1822 kPa
419.78 K, Crystal, Closed cell (Static) method	0.1848 kPa
419.81 K, Liquid, Closed cell (Static) method	0.2047 kPa
421.73 K, Crystal, Closed cell (Static) method	0.2084 kPa
421.79 K, Liquid, Closed cell (Static) method	0.2266 kPa
423.71 K, Crystal, Closed cell (Static) method	0.2411 kPa
423.75 K, Liquid, Closed cell (Static) method	0.2538 kPa
425.74 K, Liquid, Closed cell (Static) method	0.2828 kPa
427.7 K, Liquid, Closed cell (Static) method	0.3131 kPa and 0.3096 kPa
429.67 K, Liquid, Closed cell (Static) method	0.3457 kPa
431.58 K, Liquid, Closed cell (Static) method	0.3815 kPa
431.6 K, Liquid, Closed cell (Static) method	0.3843 kPa
433.57 K, Liquid, Closed cell (Static) method	0.4239 kPa
435.51 K, Liquid, Closed cell (Static) method	0.4605 kPa
435.52 K, Liquid, Closed cell (Static) method	0.4642 kPa
437.51 K, Liquid, Closed cell (Static) method	0.5099 kPa
439.47 K, Liquid, Closed cell (Static) method	0.5625 kPa
441.42 K, Liquid, Closed cell (Static) method	0.615 kPa

Settings	Normal melting temperature [°C]
Crystal, DTA	155.6

Settings	Molar enthalpy of transition or fusion [kJ/mol]
[1]	24.2
